Columns and labels:
human TLR7 = human TLR7 (Homo sapiens (Human), UniProt Q9NYK1); assay: Agonistic activity on human TLR7 in HEK-Blue hTLR7 stably transfected cells; assay type: cell-based; conditions: for EC50: OD 620 nm
Description: The activation effect of the compounds of the present invention on the hTLR7 protein expressed by the HEK-Blue™ hTLR7 stably transfected cells was determined by the following experimental method:
(§1) A bag of HEK-Blue detection dry powder was dissolved in 50 ml of water free of endotoxin, and the solution was then placed in an incubator at 37° C. for 10 minutes followed by sterile filtration to prepare a HEK-Blue detection medium. The compound was firstly formulated into a 20 mM stock solution, then diluted with pure DMSO to a maximum concentration of 6×10^6 nM, and a total of 10 points were obtained by a 3-fold gradient dilution.
(§2) The above formulated compound was firstly diluted 20-fold with the medium, then 20 μl of the diluted compound were added to each well. The supernate was removed from the HEK-Blue™ hTLR7 cells, to which 2-5 ml of pre-warmed PBS were then added. The cells were placed in an incubator for 1-2 minutes, gently pipetted, and counted by trypan blue staining. The cells were re-suspended in the HEK-Blue detection medium to adjust the concentration to 2.2×10^5 cells/ml. 180 μl of cells were added to the above 96-well plate already added with 20 μl of the compounds, and incubated at 37° C. for 6-16 hours.
The activation effect of the compounds of the present invention on human TLR7 can be determined by the above test, and the obtained EC50 values are shown in Table 1.

human TLR8 = human TLR8 (Homo sapiens (Human), UniProt Q9NR97); assay: Agonistic activity on human TLR8 in HEK-Blue hTLR8 stably transfected cells; assay type: cell-based; conditions: for EC50: OD 620 nm
human TLR8, sequence (Q9NR97 27-1041): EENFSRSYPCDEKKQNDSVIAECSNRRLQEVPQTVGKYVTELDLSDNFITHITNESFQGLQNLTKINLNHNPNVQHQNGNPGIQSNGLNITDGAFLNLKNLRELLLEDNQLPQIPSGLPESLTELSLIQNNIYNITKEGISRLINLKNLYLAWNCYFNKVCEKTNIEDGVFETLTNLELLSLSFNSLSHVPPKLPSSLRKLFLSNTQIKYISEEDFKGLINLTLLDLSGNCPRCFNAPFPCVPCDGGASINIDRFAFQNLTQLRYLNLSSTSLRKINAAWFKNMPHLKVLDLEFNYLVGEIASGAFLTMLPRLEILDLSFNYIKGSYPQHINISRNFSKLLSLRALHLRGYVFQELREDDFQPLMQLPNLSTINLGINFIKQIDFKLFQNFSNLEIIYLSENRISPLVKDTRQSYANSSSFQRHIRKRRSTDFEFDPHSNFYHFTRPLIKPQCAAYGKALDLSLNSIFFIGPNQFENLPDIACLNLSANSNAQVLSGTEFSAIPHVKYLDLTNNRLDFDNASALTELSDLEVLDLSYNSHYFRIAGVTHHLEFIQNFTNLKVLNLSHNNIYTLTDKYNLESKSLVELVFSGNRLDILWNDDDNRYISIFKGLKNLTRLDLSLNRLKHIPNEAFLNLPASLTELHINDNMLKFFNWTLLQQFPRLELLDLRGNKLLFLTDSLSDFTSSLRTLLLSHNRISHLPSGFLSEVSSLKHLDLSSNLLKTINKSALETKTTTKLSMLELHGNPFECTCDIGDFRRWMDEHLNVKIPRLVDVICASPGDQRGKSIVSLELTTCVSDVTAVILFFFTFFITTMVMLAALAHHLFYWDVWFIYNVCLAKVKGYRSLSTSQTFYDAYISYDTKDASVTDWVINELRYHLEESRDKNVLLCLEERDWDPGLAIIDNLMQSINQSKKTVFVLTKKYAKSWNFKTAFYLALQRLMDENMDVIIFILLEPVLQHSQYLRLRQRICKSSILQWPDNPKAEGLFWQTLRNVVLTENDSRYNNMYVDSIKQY
Description: The activation effect of the compounds of the present invention on the hTLR8 protein expressed by the HEK-Blue™ hTLR8 stably transfected cells was determined by the following experimental method:
as §1, with “dilution. The compound was firstly diluted 20-fold with the medium, then 20 μl of the diluted compound were added to each well.” for “dilution.”
as §2, with “The” for “The above formulated compound was firstly diluted 20-fold with the medium, then 20 μl of the diluted compound were added to each well. The”, “hTLR8” for “hTLR7”
The activation effect of the compounds of the present invention on human TLR8 can be determined by the above test, and the obtained EC50 values are shown in Table 2.

PBMC = assay: Stimulation of the secretion of IFN-α from peripheral blood mononuclear cells (PBMC); assay type: cell-based, human; conditions: minimal effective concentration: lowest concentration giving cytokine level at least 3 times the minimum detection limit; 24 hours incubation
Description: The ability of the compounds of the present invention to stimulate the secretion of IFN-α from PBMC was determined by the following experimental method:
The compound was diluted with pure DMSO to a maximum concentration of 5 mM, and a total of 9 points were obtained by a 4-fold gradient dilution. 4 μl of the compound were then added to 196 μl of RMPI 1640 medium containing 10% FBS and mixed well. 50 μl of the mixture were taken from each well and added to a new 96-well plate.
All reagents were equilibrated to room temperature. 60 ml of blood and PBS+2% FBS were added to a 250 ml culture flask, gently pipetted, mixed well and diluted. 15 ml of lymphocyte separation solution Ficoll-Paque PREMIUM and then 30 ml of diluted blood were added to a 50 ml PBMC centrifuge tube SepMate™-50. The mixture was centrifuged at 1200 g for 10 minutes at room temperature. The supernatant was taken and then centrifuged at 300 g for 8 minutes. The cells were re-suspended in the RMPI 1640 medium containing 10% FBS and counted, and the number of PBMCs was adjusted to 3.33×10^6 cells/ml. 150 μl of the cell solution were added to the plate added with the compound, and incubated in an incubator at 37° C., in 5.0% CO2 for 24 hours.
The cell culture plate was placed in a centrifuge, and centrifuged at 1200 rpm for 10 minutes at room temperature. 150 μl of the supernatant were taken from each well. The reagents in the human IFN-α kit were first equilibrated to normal temperature. The anti-IFN-α-Eu^3+-Cryptate conjugate and the anti-IFN-α-d2-conjugate were formulated in the dark according to the kit instructions, and both of them were mixed well with the conjugate buffer at a ratio of 1:40. 16 μl of the supernatant obtained by centrifugation were then added to each well. 2 μl of anti-IFN-α-Eu^3+-Cryptate conjugate and anti-IFN-α-d2-conjugate formulated just now were then added to each well. The plate was shaken and mixed well, and incubated in the dark at room temperature for 3 hours.
The PHERAStar was read in the HTRF mode. The lowest compound concentration that stimulated cytokine levels of at least 3 times higher than the minimum detection limit was defined as the minimal effective concentration (MEC) value of the compound in the cytokine stimulation test.
The ability of the compounds of the present invention to stimulate the secretion of IFN-α from PBMC was determined by the above test, and the obtained MEC values are shown in Table 3.

CYP2D6 = CYP2D6 (Homo sapiens (Human), UniProt P10635); assay: Inhibition of the enzyme activity of CYP2D6 in human liver microsomes; assay type: in vitro ADME; conditions: probe substrate dextromethorphan
CYP2D6, sequence (P10635 whole entry): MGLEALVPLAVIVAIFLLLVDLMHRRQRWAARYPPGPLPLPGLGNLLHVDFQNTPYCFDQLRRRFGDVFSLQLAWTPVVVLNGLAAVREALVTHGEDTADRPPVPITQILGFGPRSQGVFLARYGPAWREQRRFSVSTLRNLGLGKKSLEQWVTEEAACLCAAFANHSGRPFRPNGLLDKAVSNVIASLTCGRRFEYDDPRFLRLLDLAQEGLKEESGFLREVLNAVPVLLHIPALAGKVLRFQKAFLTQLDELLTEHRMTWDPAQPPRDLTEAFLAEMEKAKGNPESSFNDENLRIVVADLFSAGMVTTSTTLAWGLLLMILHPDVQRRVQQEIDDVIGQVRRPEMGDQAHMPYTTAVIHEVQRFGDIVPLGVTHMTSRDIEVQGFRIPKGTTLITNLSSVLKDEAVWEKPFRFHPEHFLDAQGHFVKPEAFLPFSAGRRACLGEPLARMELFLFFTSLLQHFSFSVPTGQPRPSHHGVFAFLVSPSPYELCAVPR
Description: The effect of the compounds of the present invention on the enzyme activity of CYP2D6 in human liver microsomes was determined by the following experimental method:
(§3) 100 mM PBS buffer was formulated, which was then used to formulate 2.5 mg/ml microsome solution and 5 mM NADPH solution. The 5× concentration of the compound working solution was diluted with PBS gradient (150, 50, 15, 5, 1.5, 0.15, 0.015, 0 μM). The 5× concentration of quinidine working solution was diluted with PBS gradient (150, 50, 15, 5, 1.5, 0.15, 0.015, 0 μM). Dextromethorphan working solution was diluted with PBS to a concentration of 50 μM.
(§4) 20 μl of 2.5 mg/ml microsome solution, 20 μl of 50 μM testosterone working solution, 20 μl of MgCl2 solution and 20 μl of the compound working solution (150, 50, 15, 5, 1.5, 0.15, 0.015, 0 μM, different reaction systems for each concentration) were taken respectively and mixed well. For the positive control group, the compound was replaced with the same concentration of quinidine. The mixture together with 5 mM NADPH solution were pre-incubated at 37° C. for 5 minutes. After 5 minutes, 20 μl of NADPH were added to each well, the reaction was started and incubated for 30 minutes. All the incubated samples were present in duplicate. After 30 minutes, 250 μl of acetonitrile containing internal standard were added to all samples, mixed well, shaken at 800 rpm for 10 minutes, and then centrifuged at 3700 rpm for 10 minutes. 80 μl of the supernatant were taken and analyzed by LC-MS/MS.
The data were calculated by Graphpad Prism to obtain the IC50 values of the compounds on the metabolite site of CYP2D6.

CYP3A4 [1] = target: T1, CYP3A4 (Homo sapiens (Human), UniProt P08684); assay: Inhibition of the midazolam metabolite site of CYP3A4 in human liver microsomes; assay type: in vitro ADME; conditions: probe substrate midazolam
T1 sequence (P08684 whole entry): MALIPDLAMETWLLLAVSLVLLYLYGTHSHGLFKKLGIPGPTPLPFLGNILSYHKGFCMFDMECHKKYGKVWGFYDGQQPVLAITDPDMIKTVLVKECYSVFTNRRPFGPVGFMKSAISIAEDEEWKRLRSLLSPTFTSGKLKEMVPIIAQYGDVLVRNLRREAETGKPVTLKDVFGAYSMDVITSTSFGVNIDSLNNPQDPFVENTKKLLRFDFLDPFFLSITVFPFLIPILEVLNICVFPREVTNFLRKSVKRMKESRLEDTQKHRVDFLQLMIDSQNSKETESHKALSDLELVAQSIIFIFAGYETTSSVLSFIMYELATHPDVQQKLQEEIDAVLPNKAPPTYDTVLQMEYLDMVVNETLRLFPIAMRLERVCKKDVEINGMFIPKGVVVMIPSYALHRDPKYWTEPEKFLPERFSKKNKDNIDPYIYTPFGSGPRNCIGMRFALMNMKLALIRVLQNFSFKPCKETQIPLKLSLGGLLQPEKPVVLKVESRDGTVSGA
Description: The effect of the compounds of the present invention on the enzyme activity of midazolam metabolite site of CYP3A4 in human liver microsomes was determined by the following experimental method:
as §3, with “ketoconazole” for “quinidine”
as §4, with “ketoconazole.” for “quinidine.”
The data were calculated by Graphpad Prism to obtain the IC50 values of the compounds on the midazolam metabolite site of CYP3A4.

CYP3A4 [2] = target: T1, CYP3A4; assay: Inhibition of the testosterone metabolite site of CYP3A4 in human liver microsomes; assay type: in vitro ADME; conditions: probe substrate testosterone
Description: The effect of the compounds of the present invention on the enzyme activity of testosterone metabolite site of CYP3A4 in human liver microsomes was determined by the following experimental method:
as §3, with “ketoconazole” for “quinidine”
as §4, with “ketoconazole.” for “quinidine.”
The data were calculated by Graphpad Prism to obtain the IC50 values of the compounds on the testosterone metabolite site of CYP3A4.

human TLR7, sequence (Q9NYK1 27-1049): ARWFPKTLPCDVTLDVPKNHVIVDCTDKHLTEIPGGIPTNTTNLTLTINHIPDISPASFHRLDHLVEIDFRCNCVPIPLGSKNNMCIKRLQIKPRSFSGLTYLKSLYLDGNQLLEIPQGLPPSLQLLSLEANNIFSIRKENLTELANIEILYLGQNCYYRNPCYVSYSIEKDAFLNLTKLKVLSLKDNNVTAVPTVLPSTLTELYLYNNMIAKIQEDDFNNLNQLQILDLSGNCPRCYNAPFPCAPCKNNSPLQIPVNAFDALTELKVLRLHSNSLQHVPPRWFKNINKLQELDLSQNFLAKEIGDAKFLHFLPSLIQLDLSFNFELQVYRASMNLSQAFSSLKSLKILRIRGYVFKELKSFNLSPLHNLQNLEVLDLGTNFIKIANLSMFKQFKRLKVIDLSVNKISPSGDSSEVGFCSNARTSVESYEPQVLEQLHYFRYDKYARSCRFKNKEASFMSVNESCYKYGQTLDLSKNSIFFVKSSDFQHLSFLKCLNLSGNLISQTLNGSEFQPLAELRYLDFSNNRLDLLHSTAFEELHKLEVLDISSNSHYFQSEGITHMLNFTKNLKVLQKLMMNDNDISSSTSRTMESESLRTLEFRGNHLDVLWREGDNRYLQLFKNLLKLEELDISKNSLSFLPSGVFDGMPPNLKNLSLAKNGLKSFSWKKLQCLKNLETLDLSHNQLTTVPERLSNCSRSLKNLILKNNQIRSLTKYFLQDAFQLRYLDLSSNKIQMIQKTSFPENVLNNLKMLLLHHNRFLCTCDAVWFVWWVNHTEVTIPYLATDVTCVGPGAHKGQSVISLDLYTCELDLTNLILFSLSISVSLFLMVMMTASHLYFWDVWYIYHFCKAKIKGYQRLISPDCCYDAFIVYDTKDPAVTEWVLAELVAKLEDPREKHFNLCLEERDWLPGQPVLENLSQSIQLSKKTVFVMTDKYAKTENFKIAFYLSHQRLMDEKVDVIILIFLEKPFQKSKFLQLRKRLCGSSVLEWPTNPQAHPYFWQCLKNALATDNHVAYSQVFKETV

Compound | Emax (human TLR7) | Emax (human TLR8) | EC50 (human TLR8) | EC50 (human TLR7) | MEC to stimulate the secretion of IFN-α from PBMC (PBMC) | IC50 (CYP2D6) | IC50 (CYP3A4 [1]) | IC50 (CYP3A4 [2])
CCCCOc1nc(N)c2cnn(Cc3ccc(CN4CCCC4)cc3)c2n1 [Example 1, 6-Butoxy-1-(4-(pyrrolidin-1-ylmethyl)benzyl)-1H-pyrazolo[3,4-d]pyrimidin-4-amine] | 100% | 8% | > 30 µM | – | 6 nM | > 30 µM | – | –
CCCCOc1nc(N)c2cnn(Cc3cccc(CN4CCC4)c3)c2n1 [Example 5, 1-(3-(Azetidin-1-ylmethyl)benzyl)-6-butoxy-1H-pyrazolo[3,4-d]pyrimidin-4-amine] | – | – | – | – | 41 nM | – | – | –
CCCCOc1nc(N)c2cnn(Cc3cccc(CN4CCCCC4)c3)c2n1 [Example 6, 6-Butoxy-1-(3-(piperidin-1-ylmethyl)benzyl)-1H-pyrazolo[3,4-d]pyrimidin-4-amine] | 91% | 35% | > 6 µM | 0.233 µM | – | 10 µM | 10 µM | 3 µM
COCC(C)Oc1nc(N)c2cnn(Cc3ccc(CN4CCCC4)cc3)c2n1 (stereo not shown) [Example 8, 6-((1-Methoxypropan-2-yl)oxy)-1-(4-(pyrrolidin-1-ylmethyl)benzyl)-1H-pyrazolo[3,4-d]pyrimidin-4-amine] | 104% | 2% | > 30 µM | 0.217 µM | – | – | – | –
CCCCOc1nc(N)c2cnn(Cc3ccc(CN4CCCC4)c(F)c3)c2n1 [Example 9, 6-Butoxy-1-(3-fluoro-4-(pyrrolidin-1-ylmethyl)benzyl)-1H-pyrazolo[3,4-d]pyrimidin-4-amine] | 96% | – | – | 0.128 µM | – | – | – | –

Further lines, with some results ahead:

Emax (human TLR7) | Emax (human TLR8) | EC50 (human TLR8) | EC50 (human TLR7) | Compound | MEC to stimulate the secretion of IFN-α from PBMC (PBMC) | IC50 (CYP2D6) | IC50 (CYP3A4 [1]) | IC50 (CYP3A4 [2])
79% | 0% | > 30 µM | 0.349 µM | CCCCNc1nc(N)c2cnn(Cc3ccc(CN4CCCC4)cc3)c2n1 [Example 10, N^6-Butyl-1-(4-(pyrrolidin-1-ylmethyl)benzyl)-1H-pyrazolo[3,4-d]pyrimidine-4,6-diamine] | – | – | – | –
85% | 0% | > 30 µM | 0.335 µM | CCCNC(=O)c1nc(N)c2cnn(Cc3ccc(CN4CCCC4)cc3)c2n1 [Example 11, 4-Amino-N-propyl-1-(4-(pyrrolidin-1-ylmethyl)benzyl)-1H-pyrazolo[3,4-d]pyrimidine-6-carboxamide] | – | – | – | –
78% | 5% | > 30 µM | 0.388 µM | CCCCC(=O)c1nc(N)c2cnn(Cc3ccc(CN4CCCC4)cc3)c2n1 [Example 12] | – | 16 µM | 16 µM | > 30 µM

Source: US11117898B2, “Pyrazolo-heteroaryl derivative, preparation method and medical use thereof” (Jiangsu Hengrui Medicine Co., Ltd., priority 2016, dated 2021)
